Measurements: ChEMBL document CHEMBL1201862, “PubChem BioAssay data set” (2004)
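The compound was tested at five concentrations on cells cultured in 96-well plates, with a 48-hour exposure period. The concentration for 50% growth inhibition is given as GI50.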 The source made the active and inactive calls. Rule as the data show it: active = GI50 up to about 1.1 µM and inactive = higher.

Tests used:
Experiment in all cases: DTP human tumour cell line panel, 48 h
EKVX = test system: EKVX
RPMI-8226 = test system: RPMI-8226
SNB-75 = test system: SNB-75
HCT-15 = test system: HCT-15
SW-620 = test system: SW-620
M14 = test system: M14
HOP-92 = test system: HOP-92
T47D = test system: T47D
KM12 = test system: KM12
SNB-19 = test system: SNB-19
K562 = test system: K562
SF-539 = test system: SF-539
CCRF-CEM = test system: CCRF-CEM
NCI-H522 = test system: NCI-H522
COLO 205 = test system: COLO 205
NCI-H460 = test system: NCI-H460
HCT-116 = test system: HCT-116
MOLT-4 = test system: MOLT-4
OVCAR-5 = test system: OVCAR-5
SK-MEL-5 = test system: SK-MEL-5

Structure (SMILES)	GI50 (EKVX)	GI50 (RPMI-8226)	GI50 (SNB-75)	GI50 (HCT-15) [µM]	GI50 (SW-620)	GI50 (M14)	GI50 (HOP-92)	GI50 (T47D)	GI50 (KM12)	GI50 (SNB-19)	GI50 (K562)	GI50 (SF-539)	GI50 (CCRF-CEM)	GI50 (NCI-H522)	GI50 (COLO 205)	GI50 (NCI-H460)	GI50 (HCT-116)	GI50 (MOLT-4)	GI50 (OVCAR-5)	GI50 (SK-MEL-5)
CC(=O)n1nc(-c2nc3ccccc3nc2Cl)cc1Cl	12.5 µM (inactive)	13.6 µM (inactive)	25.8 µM (inactive)	11.2	2.88 µM (inactive)	4.43 µM (inactive)	> 69.8 µM (inactive)	68.4 µM (inactive)	19.4 µM (inactive)	30.5 µM (inactive)	3.61 µM (inactive)	2.88 µM (inactive)	2.45 µM (inactive)	7.78 µM (inactive)	18.4 µM (inactive)	32.8 µM (inactive)	3.78 µM (inactive)	1.9 µM (inactive)	34.7 µM (inactive)	4.68 µM (inactive)
O=c1oc2ccc(Cl)cc2cc1C1=CSC2=NCCN12	20.6 µM (inactive)	20.4 µM (inactive)	44.5 µM (inactive)	18.9	24.6 µM (inactive)	31.6 µM (inactive)	22.1 µM (inactive)	25.3 µM (inactive)	19.8 µM (inactive)	25 µM (inactive)	18.2 µM (inactive)	28.6 µM (inactive)	20.4 µM (inactive)	18.7 µM (inactive)	20.9 µM (inactive)	30.3 µM (inactive)	17.6 µM (inactive)	17.9 µM (inactive)	50.5 µM (inactive)	19.1 µM (inactive)
COC1(OC)C2(Cl)C(Cl)=C(Cl)C1(Cl)C1c3ccc(C(C)=O)c4cccc(c34)C12 (stereo not given)	41.6 µM (inactive)	5.82 µM (inactive)	25.9 µM (inactive)	6.24	> 53.6 µM (inactive)	11.9 µM (inactive)	2.89 µM (inactive)	20.8 µM (inactive)	11.7 µM (inactive)	> 59 µM (inactive)	6.38 µM (inactive)	64 µM (inactive)	13.8 µM (inactive)	13.3 µM (inactive)	12.8 µM (inactive)	14.5 µM (inactive)	6.47 µM (inactive)	5.47 µM (inactive)	28.6 µM (inactive)	10.4 µM (inactive)
N#Cc1c(/C=C/c2ccccc2)c2c([nH]c1=S)CCCCC2	> 100 µM (inactive)	> 100 µM (inactive)	> 100 µM (inactive)	> 100	> 100 µM (inactive)	> 100 µM (inactive)	> 100 µM (inactive)	> 100 µM (inactive)	75.5 µM (inactive)	> 100 µM (inactive)	> 100 µM (inactive)	> 100 µM (inactive)	> 100 µM (inactive)	> 100 µM (inactive)	> 100 µM (inactive)	4.9 µM (inactive)	> 100 µM (inactive)	> 100 µM (inactive)	> 100 µM (inactive)	> 100 µM (inactive)
Nc1cc(O)c2c(c1O)C(=O)C=CC2=O	17.9 µM (inactive)	5.2 µM (inactive)	30.7 µM (inactive)	7.41	4.33 µM (inactive)	7.76 µM (inactive)	14.8 µM (inactive)	13.2 µM (inactive)	19.6 µM (inactive)	23.8 µM (inactive)	5.78 µM (inactive)	18.9 µM (inactive)	2.19 µM (inactive)	5.9 µM (inactive)	6.62 µM (inactive)	9.57 µM (inactive)	5.19 µM (inactive)	4.66 µM (inactive)	20.8 µM (inactive)	8.26 µM (inactive)
O=C1C=CC(=O)c2c(O)c(N3CCN(c4ccccn4)CC3)cc(O)c21	23.9 µM (inactive)	4.68 µM (inactive)	7.41 µM (inactive)	3.28	3.58 µM (inactive)	3.29 µM (inactive)	10.2 µM (inactive)	29.4 µM (inactive)	11 µM (inactive)	19.2 µM (inactive)	4.38 µM (inactive)	4.85 µM (inactive)	3.07 µM (inactive)	5.06 µM (inactive)	5.35 µM (inactive)	3.24 µM (inactive)	2.85 µM (inactive)	4.22 µM (inactive)	46.5 µM (inactive)	1.77 µM (inactive)
O=C(CSc1nc2ccc(I)cc2c(=O)n1Cc1ccccc1)N/N=C/c1ccccc1	26.6 µM (inactive)	82.4 µM (inactive)	11.1 µM (inactive)	22.1	> 100 µM (inactive)	43.3 µM (inactive)	11.5 µM (inactive)	23.1 µM (inactive)	48.8 µM (inactive)	17.5 µM (inactive)	29.6 µM (inactive)	26.9 µM (inactive)	40.9 µM (inactive)	18.1 µM (inactive)	> 100 µM (inactive)	27 µM (inactive)	33.9 µM (inactive)	58.1 µM (inactive)	57 µM (inactive)	42.4 µM (inactive)
O=C(c1ccccc1)N(CCCCNC(=O)C(F)(F)F)CCCNC(=O)C(F)(F)F	> 100 µM (inactive)	> 100 µM (inactive)	32.6 µM (inactive)	> 100	> 100 µM (inactive)	> 100 µM (inactive)	> 100 µM (inactive)	> 100 µM (inactive)	> 100 µM (inactive)	> 100 µM (inactive)	> 100 µM (inactive)	> 100 µM (inactive)	> 100 µM (inactive)	> 100 µM (inactive)	> 100 µM (inactive)	> 100 µM (inactive)	> 100 µM (inactive)	> 100 µM (inactive)	> 100 µM (inactive)	> 100 µM (inactive)
COc1cc(C2SCC(=O)N2c2ccc(-c3ccc(-n4c(-c5ccccc5)nc5ccccc5c4=O)cc3)cc2)ccc1O (stereo not given)	> 100 µM (inactive)	> 100 µM (inactive)	15 µM (inactive)	25.8	82 µM (inactive)	> 100 µM (inactive)	30.9 µM (inactive)	14.4 µM (inactive)	48.2 µM (inactive)	> 100 µM (inactive)	46.7 µM (inactive)	54.7 µM (inactive)	42.4 µM (inactive)	35.1 µM (inactive)	> 100 µM (inactive)	> 100 µM (inactive)	47.8 µM (inactive)	37 µM (inactive)	48.3 µM (inactive)	26.7 µM (inactive)
CCNCCCCNCCCCNCCCCNCCCCNCC	53.5 µM (inactive)	53 µM (inactive)	16.7 µM (inactive)	> 100	> 100 µM (inactive)	> 100 µM (inactive)	30.8 µM (inactive)	6.17 µM (inactive)	76.6 µM (inactive)	99.8 µM (inactive)	57 µM (inactive)	70.1 µM (inactive)	63.5 µM (inactive)	> 100 µM (inactive)	43.8 µM (inactive)	32 µM (inactive)	11.4 µM (inactive)	> 79.6 µM (inactive)	52.5 µM (inactive)	53.5 µM (inactive)
